Test results taken from PubChem BioAssay AID330 (DTP/NCI, 2004).
Where “and” joins values, the source holds several entries; their conditions need not be identical. Identical values can stand only once. Inconclusive results and toxic doses are left out.

Test system: P388 leukemia ip, CD2F1 mice, survival T/C
Assay: NCI In Vivo Anticancer Drug Screen. Data for tumor model P388 Leukemia (intraperitoneal) in CD2F1 (CDF1) mice
Conditions: endpoint: median survival time, higher = longer survival
How it was run: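 Mice carrying the transplanted tumor received test compound or vehicle. Survival was recorded in each group, and the value is the treated-group measurement divided by that of the vehicle-treated control group.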

[1] = dose: 100.0 mg/kg/injection, schedule: Q04DX002 (ip), vehicle: saline
[2] = dose: 200.0 mg/kg/injection, schedule: Q04DX002 (ip), vehicle: saline
[3] = dose: 25.0 mg/kg/injection, schedule: Q01DX009 (ip), vehicle: saline with Tween-80
[4] = dose: 50.0 mg/kg/injection, schedule: Q01DX009 (ip), vehicle: saline with Tween-80
[5] = dose: 100.0 mg/kg/injection, schedule: Q01DX005 (ip), vehicle: saline with Tween-80
[6] = dose: 200.0 mg/kg/injection, schedule: Q01DX005 (ip), vehicle: saline with Tween-80
[7] = dose: 60.0 mg/kg/injection, schedule: Q01DX005 (ip), vehicle: saline with Tween-80
[8] = dose: 120.0 mg/kg/injection, schedule: Q01DX005 (ip), vehicle: saline with Tween-80
[9] = dose: 240.0 mg/kg/injection, schedule: Q01DX005 (ip), vehicle: saline with Tween-80
[10] = dose: 1.0 mg/kg/injection, schedule: Q01DX009 (ip), vehicle: saline with Tween-80
[11] = dose: 50.0 mg/kg/injection, schedule: Q01DX009 (ip), vehicle: Klucel (hydroxypropylcellulose) (HPC)
[12] = dose: 100.0 mg/kg/injection, schedule: Q01DX009 (ip), vehicle: Klucel (hydroxypropylcellulose) (HPC)

SMILES: O=C(O)CCC(=O)CCl
- T/C (dose: 3.13 mg/kg/injection, schedule: Q01DX009 (ip), vehicle: saline): 109 % of control
- T/C (dose: 25.0 mg/kg/injection, schedule: Q04DX003 (ip), vehicle: saline with Tween-80): 104 % of control
- T/C (dose: 50.0 mg/kg/injection, schedule: Q04DX003 (ip), vehicle: saline with Tween-80): 108 % of control

SMILES: CC(=O)c1nc(-c2ccccc2)oc1-c1ccccc1
- T/C [1]: 96 % of control
- T/C [2]: 95 % of control
- T/C (dose: 400.0 mg/kg/injection, schedule: Q04DX002 (ip), vehicle: saline): 99 % of control

SMILES: CN(C)c1ccc2c3c(c(=O)oc2c1)CCC3
- T/C (dose: 3.12 mg/kg/injection, schedule: Q01DX009 (ip), vehicle: saline with Tween-80): 102 % of control
- T/C (dose: 6.25 mg/kg/injection, schedule: Q01DX009 (ip), vehicle: saline with Tween-80): 112 % of control
- T/C (dose: 12.5 mg/kg/injection, schedule: Q01DX009 (ip), vehicle: saline with Tween-80): 114 % of control and 115 % of control
- T/C [3]: 107 % of control
- T/C [4]: 104 % of control and 111 % of control
- T/C (dose: 200.0 mg/kg/injection, schedule: Q01DX009 (ip), vehicle: saline with Tween-80): 94 % of control

SMILES: Oc1ccc(O)c(-c2c(-c3ccccc3)cc3ccccn23)c1
- T/C (dose: 50.0 mg/kg/injection, schedule: Q01DX005 (ip), vehicle: Klucel (hydroxypropylcellulose) (HPC)): 102 % of control
- T/C (dose: 100.0 mg/kg/injection, schedule: Q01DX005 (ip), vehicle: Klucel (hydroxypropylcellulose) (HPC)): 104 % of control
- T/C (dose: 200.0 mg/kg/injection, schedule: Q01DX005 (ip), vehicle: Klucel (hydroxypropylcellulose) (HPC)): 104 % of control

SMILES: CCN1CCC(OC(=O)c2ccccc2)(c2nccc3ccccc23)CC1
- T/C [4]: 112 % of control

SMILES: O=S(=O)(Cl)C(Cl)(Cl)Cl
- T/C (dose: 25.0 mg/kg/injection, schedule: Q01DX009 (ip), vehicle: saline sonified): 95 % of control
- T/C (dose: 50.0 mg/kg/injection, schedule: Q01DX009 (ip), vehicle: saline sonified): 100 % of control
- T/C (dose: 100.0 mg/kg/injection, schedule: Q01DX009 (ip), vehicle: saline sonified): 86 % of control

SMILES: COc1ccc(C#CC(O)C(F)(F)F)cc1 (centres undefined)
- T/C [3]: 102 % of control
- T/C [4]: 106 % of control
- T/C (dose: 100.0 mg/kg/injection, schedule: Q01DX009 (ip), vehicle: saline with Tween-80): 107 % of control

SMILES: Clc1cnc(Oc2ccccc2)c2ccccc12
- T/C (dose: 50.0 mg/kg/injection, schedule: Q01DX005 (ip), vehicle: saline with Tween-80): 104 % of control
- T/C [5]: 103 % of control
- T/C [6]: 88 % of control

SMILES: CCOC(=O)c1csc(/C=C/c2cc(OC)c(OC)c(OC)c2)n1
- T/C [7]: 105 % of control
- T/C [8]: 100 % of control
- T/C [9]: 92 % of control

SMILES: CC(C)c1oc(=O)cc2c1[C@@H](O)[C@H]1OC(=O)[C@@]3(C)[C@@H](O)[C@H]4O[C@H]4[C@@]2(C)[C@@H]13
- T/C (dose: 0.94 mg/kg/injection, schedule: Q01DX001 (ip), vehicle: saline with Tween-80): 105 % of control
- T/C [10]: 104 % of control
- T/C (dose: 1.88 mg/kg/injection, schedule: Q01DX001 (ip), vehicle: saline with Tween-80): 105 % of control
- T/C (dose: 3.75 mg/kg/injection, schedule: Q01DX001 (ip), vehicle: saline with Tween-80): 101 % of control and 107 % of control
- T/C (dose: 7.5 mg/kg/injection, schedule: Q01DX009 (ip), vehicle: saline with Tween-80): 120 % of control
- T/C (dose: 10.0 mg/kg/injection, schedule: Q01DX009 (ip), vehicle: saline with Tween-80): 113 % of control and 115 % of control
- T/C (dose: 15.0 mg/kg/injection, schedule: Q01DX001 (ip), vehicle: saline with Tween-80): 108 % of control and 120 % of control
- T/C (dose: 15.0 mg/kg/injection, schedule: Q01DX009 (ip), vehicle: saline with Tween-80): 104 % of control
- T/C (dose: 30.0 mg/kg/injection, schedule: Q01DX001 (ip), vehicle: saline with Tween-80): 109 % of control and 113 % of control

SMILES: O=C1C=CSc2ccccc2N1
- T/C [7]: 110 % of control
- T/C [8]: 103 % of control
- T/C [9]: 101 % of control

SMILES: CN(C)C(=S)SSC(=S)N(C)C
- T/C (dose: 12.5 mg/kg/injection, schedule: Q01DX009 (ip), vehicle: Klucel (hydroxypropylcellulose) (HPC)): 119 % of control
- T/C (dose: 25.0 mg/kg/injection, schedule: Q01DX009 (ip), vehicle: Klucel (hydroxypropylcellulose) (HPC)): 115 % of control
- T/C [11]: 101 % of control and 117 % of control
- T/C [12]: 118 % of control and 90 % of control

SMILES: CC(=O)NC1C(Nc2ccc(S(=O)(=O)Nc3ncccn3)cc2)OC(CO)C(O)C1O (centres undefined)
- T/C (dose: 50.0 mg/kg/injection, schedule: Q01DX005 (ip), vehicle: saline): 106 % of control
- T/C (dose: 100.0 mg/kg/injection, schedule: Q01DX005 (ip), vehicle: saline): 99 % of control
- T/C (dose: 200.0 mg/kg/injection, schedule: Q01DX005 (ip), vehicle: saline): 101 % of control

SMILES: COc1ccc2c(C)cc(N/N=C(\c3ccccc3)c3ccccn3)nc2c1
- T/C (dose: 1.56 mg/kg/injection, schedule: Q01DX005 (ip), vehicle: saline with Tween-80): 107 % of control
- T/C (dose: 3.12 mg/kg/injection, schedule: Q01DX005 (ip), vehicle: saline with Tween-80): 102 % of control
- T/C (dose: 6.25 mg/kg/injection, schedule: Q01DX005 (ip), vehicle: saline with Tween-80): 98 % of control and 94 % of control
- T/C [5]: 89 % of control
- T/C [6]: 94 % of control

SMILES: CN(C)P1(=O)OCC(C(C)(C)C)CN1C (centres undefined)
- T/C [11]: 100 % of control
- T/C [12]: 107 % of control

SMILES: O=[N+]([O-])c1ccc(O)c(CN2CCC(O)(c3ccccc3)CC2)c1
- T/C (dose: 100.0 mg/kg/injection, schedule: Q04DX003 (ip), vehicle: Klucel (hydroxypropylcellulose) (HPC)): 108 % of control
- T/C (dose: 200.0 mg/kg/injection, schedule: Q04DX003 (ip), vehicle: Klucel (hydroxypropylcellulose) (HPC)): 99 % of control
- T/C (dose: 400.0 mg/kg/injection, schedule: Q04DX003 (ip), vehicle: Klucel (hydroxypropylcellulose) (HPC)): 107 % of control

SMILES: CCCCCCCC(=O)OCC(=O)[C@]1(O)Cc2c(O)c3c(c(O)c2[C@@H](OC2CC(N)C(O)C(C)O2)C1)C(=O)c1c(OC)cccc1C3=O (some centres undefined)
- T/C (dose: 0.5 mg/kg/injection, schedule: Q01DX009 (ip), vehicle: saline sonified): 159 % of control
- T/C (dose: 0.5 mg/kg/injection, schedule: Q01DX009 (ip), vehicle: saline with Tween-80): 178 % of control
- T/C (dose: 0.5 mg/kg/injection, schedule: Q01DX009 (ip), vehicle: water): 158 % of control
- T/C (dose: 1.0 mg/kg/injection, schedule: Q01DX009 (ip), vehicle: saline sonified): 190 % of control
- T/C [10]: 185 % of control
- T/C (dose: 1.0 mg/kg/injection, schedule: Q01DX009 (ip), vehicle: water): 181 % of control
- T/C (dose: 1.73 mg/kg/injection, schedule: Q04DX003 (ip), vehicle: water): 172 % of control
- T/C (dose: 2.0 mg/kg/injection, schedule: Q01DX009 (ip), vehicle: saline sonified): 231 % of control
- T/C (dose: 2.0 mg/kg/injection, schedule: Q01DX009 (ip), vehicle: water): 247 % of control
- T/C (dose: 2.88 mg/kg/injection, schedule: Q04DX003 (ip), vehicle: water): 198 % of control
- T/C (dose: 4.0 mg/kg/injection, schedule: Q01DX009 (ip), vehicle: saline with Tween-80): 209 % of control and 92 % of control
- T/C (dose: 4.0 mg/kg/injection, schedule: Q01DX009 (ip), vehicle: water): 104 % of control
- T/C (dose: 4.8 mg/kg/injection, schedule: Q04DX003 (ip), vehicle: water): 202 % of control
- T/C (dose: 8.0 mg/kg/injection, schedule: Q01DX009 (ip), vehicle: saline with Tween-80): 114 % of control
- T/C (dose: 8.0 mg/kg/injection, schedule: Q04DX003 (ip), vehicle: water): 190 % of control
- T/C (dose: 13.3 mg/kg/injection, schedule: Q04DX003 (ip), vehicle: water): 111 % of control

SMILES: Cc1cc(C)c2c(Nc3ccc4c(c3)OCO4)c(C(=O)O)cnc2c1
- T/C (dose: 60.0 mg/kg/injection, schedule: Q04DX002 (ip), vehicle: Klucel + Tween-80): 95 % of control
- T/C (dose: 120.0 mg/kg/injection, schedule: Q04DX002 (ip), vehicle: Klucel + Tween-80): 92 % of control
- T/C (dose: 240.0 mg/kg/injection, schedule: Q04DX002 (ip), vehicle: Klucel + Tween-80): 101 % of control

SMILES: CC(=O)Nc1nc(N(C)C)nc(N(C)C)n1
- T/C (dose: 50.0 mg/kg/injection, schedule: Q04DX002 (ip), vehicle: saline): 109 % of control
- T/C [1]: 107 % of control
- T/C [2]: 114 % of control
